Laboratory results as given in the supplement of paper PMC10307832.

Tests used:
Test in all cases: relative viability (nuclei count vs DMSO), 5 days (fraction); higher = more cells survive
Sulindac + Pictilisib = compound: CC1=C(CC(=O)O)c2cc(F)ccc2/C1=C\c1ccc([S+](C)[O-])cc1 [Sulindac] + CS(=O)(=O)N1CCN(Cc2cc3nc(-c4cccc5[nH]ncc45)nc(N4CCOCC4)c3s2)CC1 [Pictilisib] (partner 1 µM)
In short: (§1)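 Relative viability equals treated-well nuclei counts divided by vehicle-well nuclei counts. Counts came from 4× images of lung cancer cell lines grown in 1536-well plates for 5 days after pin-tool dosing on the day after seeding. Dosing used one drug alone or a fixed anchor-drug dose plus five library-drug doses (not always all listed) in √10 steps, and values are medians of duplicate plates.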

[1] = compound: O=c1[nH]cc(F)c(=O)[nH]1 [5-Fluorouracil] + C[C@]1(O)C[C@@H](c2nc(-c3ccc4ccc(-c5ccccc5)nc4c3)c3c(N)nccn32)C1 [Linsitinib] (partner 1 µM)
In short: as §1

Sulindac + Palbociclib = compound: CC1=C(CC(=O)O)c2cc(F)ccc2/C1=C\c1ccc([S+](C)[O-])cc1 [Sulindac] + CC(=O)c1c(C)c2cnc(Nc3ccc(N4CCNCC4)cn3)nc2n(C2CCCC2)c1=O [Palbociclib] (partner 0.5 µM)
In short: as §1

[2] = compound: O=c1[nH]cc(F)c(=O)[nH]1 [5-Fluorouracil] + CC1(C)CCC(c2ccc(Cl)cc2)=C(CN2CCN(c3ccc(C(=O)NS(=O)(=O)c4ccc(N[C@H](CCN5CCOCC5)CSc5ccccc5)c(S(=O)(=O)C(F)(F)F)c4)cc3)CC2)C1 [Navitoclax] (partner 0.5 µM)
In short: as §1

Cell Line	relative viability (Sulindac + Pictilisib; first compound 0.08 µM)	relative viability (Sulindac + Pictilisib; first compound 0.253 µM)	relative viability (Sulindac + Pictilisib; first compound 0.8 µM)	relative viability (Sulindac + Pictilisib; first compound 2.53 µM)	relative viability (Sulindac + Pictilisib; first compound 8 µM)	relative viability ([1]; first compound 0.02 µM)	relative viability ([1]; first compound 0.2 µM)	relative viability ([1]; first compound 0.6325 µM)	relative viability ([1]; first compound 2 µM)	relative viability (Sulindac + Palbociclib; first compound 0.08 µM)	relative viability (Sulindac + Palbociclib; first compound 0.253 µM)	relative viability (Sulindac + Palbociclib; first compound 0.8 µM)	relative viability (Sulindac + Palbociclib; first compound 2.53 µM)	relative viability (Sulindac + Palbociclib; first compound 8 µM)	relative viability ([2]; first compound 0.02 µM)	relative viability ([2]; first compound 0.2 µM)	relative viability ([2]; first compound 0.6325 µM)	relative viability ([2]; first compound 2 µM)
201T	0.737	0.665	0.627	0.678	0.698	0.991	0.955	0.452	0.342	0.338	0.359	0.386	0.355	0.38	1.18	1.01	0.543	0.42
RERF-LC-KJ	0.57	0.626		0.473	0.579	0.832	0.775	0.792	0.764	1.1	1.11	1.04	1.12	1.07	0.834	0.971	1.01	0.554
NCI-H1734	0.466	0.498	0.413	0.48	0.515	0.762	1.05	0.706	0.546	0.298	0.345	0.311	0.32	0.402	0.795	0.932	0.765	0.428
PC-14	0.83	0.65		0.73	0.757	0.938	0.943	0.765		0.562	0.497	0.489	0.567	0.758	1.13	1.05	0.791	0.499
NCI-H1915	0.975	0.927	0.761	0.887	1.05	1.06	1.1	1.03	0.803	0.566	0.538	0.574	0.517	0.506	0.714	0.8	0.779	0.668
COR-L23	0.987	0.933		0.727	1.07	0.846	0.945	0.43	0.234	0.325	0.268	0.233	0.275	0.334	1.05	0.949	0.533	0.239
HOP-62	1.01	0.864	0.831	0.758	0.978	1.11	1.03	0.86	0.765	0.495	0.553	0.469	0.525	0.541	1.09	1.13	1.01	0.805
NCI-H1975	0.301	0.28		0.282	0.286	0.902	1.02	0.489	0.308	0.621	0.638	0.451	0.546	0.619	1.11	1.1	0.514	0.261
BEN	0.599	0.56	0.443	0.673	0.667	0.813	0.754	0.641	0.646	0.415	0.495	0.506	0.483	0.503	0.0616	0.276	0.0857	0.0672
NCI-H1437	0.417	0.504	0.405	0.386	0.489		0.26	0.169	0.119	0.358	0.296	0.294	0.314	0.333		0.243	0.203	0.139
EMC-BAC-2	0.524	0.58	0.485	0.542	0.596	0.865	0.873	0.846	0.8	0.532	0.512	0.482	0.505	0.566	1.19	1.2	1.25	1.19
SW 1573	0.508	0.632	0.451	0.511	0.605	0.734	0.917	0.782	0.483	0.451	0.406	0.362	0.336	0.464	1.02	1.13	0.782	0.501
LXF-289	0.955	0.796	0.769	0.823	0.848	1	0.67	0.389	0.308	0.685	0.672	0.556	0.659	0.624	0.881	0.625	0.387	0.283
LOU-NH91	0.584	0.514	0.536	0.512	0.574	0.921	0.889	0.646	0.415	0.473	0.535	0.536	0.521	0.571	0.732	0.637	0.455	0.283
NCI-H2347	0.298	0.637	0.503	0.6	0.509	0.997	0.748	0.467	0.411	0.42	0.459	0.453	0.379	0.461	0.638	0.65	0.369	0.354
NCI-H2009	1.04	0.8	0.788	0.71	0.932	1.16	1.15	0.934	0.735	0.176	0.209	0.234	0.17	0.242	1.18	1.16	1.08	0.726
HCC-827	0.922	1.17	0.823	0.88	1.06	0.909	0.95	0.57	0.405	0.496	0.552	0.48	0.547	0.465	0.969	1	0.592	0.382
NCI-H727	0.46	0.252	0.381	0.404	0.349	0.272	0.443	0.31	0.332	0.621	0.643	0.566	0.627	0.667	0.369	0.41	0.527	0.315

Cell Line	relative viability (Sulindac + Pictilisib; first compound 0.08 µM)	relative viability (Sulindac + Pictilisib; first compound 0.253 µM)	relative viability (Sulindac + Pictilisib; first compound 0.8 µM)	relative viability (Sulindac + Pictilisib; first compound 2.53 µM)	relative viability (Sulindac + Pictilisib; first compound 8 µM)	relative viability ([1]; first compound 0.02 µM)	relative viability ([1]; first compound 0.2 µM)	relative viability ([1]; first compound 0.6325 µM)	relative viability ([1]; first compound 2 µM)	relative viability (Sulindac + Palbociclib; first compound 0.08 µM)	relative viability (Sulindac + Palbociclib; first compound 0.253 µM)	relative viability (Sulindac + Palbociclib; first compound 0.8 µM)	relative viability (Sulindac + Palbociclib; first compound 2.53 µM)	relative viability (Sulindac + Palbociclib; first compound 8 µM)	relative viability ([2]; first compound 0.02 µM)	relative viability ([2]; first compound 0.2 µM)	relative viability ([2]; first compound 0.6325 µM)	relative viability ([2]; first compound 2 µM)
CAL-12T	0.442	0.374	0.401	0.324	0.616	0.487	0.87	0.673	0.412	0.216	0.549	0.314	0.526	0.576	1.13	1.25	0.974	0.489
PC-3 [JPC-3]	0.886	0.81	0.55	0.753	0.857	0.947	0.949	0.888	0.698	0.477	0.521	0.596	0.502	0.545	0.793	0.759	0.767	0.63
NCI-H23	0.423	0.525	0.387	0.536	0.517	0.488	0.631	0.444	0.271	0.613	0.549	0.495	0.505	0.589	0.807	0.845	0.653	0.338
NCI-H838	0.519	0.466	0.377	0.426	0.603	1.01	1.06	0.578	0.312	0.262	0.234	0.195	0.226	0.223	1.14	1.06	0.572	0.28
HCC-366	0.149	0.13		0.0966	0.0889	0.673	0.82	0.254	0.0796	0.442	0.36		0.301	0.555	1.19	0.992	0.545	0.125
NCI-H1666		0.442	0.318	0.392	0.56	0.777	0.412	0.401	0.321	0.632	0.606	0.545	0.727	0.624	0.878	0.406	0.327	0.311
HCC-44	0.403	0.562	0.537	0.687	0.589	0.613	0.57	0.451	0.272	0.982	1.06	0.924	0.96	0.966	0.916	0.984	0.744	0.341
A-427	0.84	0.507	0.625	0.805	0.717	1.05	1.08	1.11	0.546	0.486	0.548	0.495	0.473	0.565	0.827	0.999	0.879	0.438
NCI-H460	0.366	0.359	0.219	0.381	0.394	0.872		0.163	0.042	0.199	0.176	0.147	0.239	0.148	1.5	0.461	0.165	0.0655
NCI-H441	0.627	0.452	0.373	0.469	0.603	0.51	0.519	0.397	0.301	0.193	0.183	0.188	0.207	0.195	1	0.502	0.507	0.409
LK-2	0.551	0.675			0.558	0.767	0.5	0.584	0.334	0.879	0.624	0.496	0.369	0.88	1.06	0.939	0.652	0.603
NCI-H2085	0.459	0.415	0.433	0.377	0.447	0.894	0.963	0.932	0.587	0.406	0.487	0.497	0.508	0.429	0.972	1.14	1.08	0.875
SK-MES-1	0.368	0.427	0.323	0.362	0.459	1.07	0.799	0.433	0.337	0.313	0.364	0.353	0.373	0.315	1.2	0.789	0.474	0.373
NCI-H1793	0.275	0.329	0.271	0.351	0.344	0.691	0.92	0.815	0.496	0.301	0.375		0.34	0.364	0.385	0.53	0.403	0.289
NCI-H3122	0.675	0.602	0.592	0.627	0.621	1.09	0.799	0.415	0.223	0.161	0.183	0.218	0.204	0.205	1.04	0.743	0.443	0.259
NCI-H1792	0.286	0.294		0.231	0.313	0.554	0.484	0.14	0.0794	0.646	0.734		0.601	0.635	0.64	0.591	0.131	0.118
NCI-H1755	0.434	0.419	0.304	0.362	0.507	0.96	0.796	0.322	0.254	0.479	0.48	0.517	0.495	0.504	0.982	0.757	0.291	0.198
EPLC-272H	0.293		0.252	0.284	0.361	1.1	0.9		0.305	0.255		0.323	0.305	0.318	1.18	0.79	0.372	0.259
